Measurements reported in PubChem BioAssay AID463199 (Broad Institute, 2010).
Activity calls are given as the source filed them.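 How the source made its calls: active means AC50, the dose giving half-maximal effect, exceeds a fixed cutoff for a compound that rescues yeast growth under heat; inactive means the rest, inconclusive results apart.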 Where a SMILES comes first, the peptide text is derived from it.

test system: S. cerevisiae Burl-1 ts mutant growth, BacTiter-Glo, 38.5C 24 h; experiment: growth induction of Burl-1 ts yeast mutant, dose response, counter-screen for SUMOylation pathway inhibitor project, whole organism, S. cerevisiae, luminescence (AID 463199)

| Structure (SMILES) | AC50 |
| --- | --- |
| Cc1ccc(N(CC(=O)Nc2cccc(C)c2)S(=O)(=O)c2cccc3nonc23)cc1 | > 21 µM (inactive) |
| COc1cc2ccccc2cc1C(=O)Nc1ccc(CN2CCOCC2)cc1 | > 42 µM (inactive) |
| CCOc1ccc(Cl)cc1CNc1nnnn1CC | > 42 µM (inactive) |
| COCCNC(=O)C(=O)NCC1OCCN1C(=O)c1ccc(Cl)cc1 (centres undefined) | > 42 µM (inactive) |
| O=S(=O)(Cc1ccccc1)NCc1ccccn1 | > 42 µM (inactive) |
| CCCCn1c2c(c(=O)n(C)c1=O)C(c1ccc(OC)cc1)N1CCCCCC1=N2 (centres undefined) | > 42 µM (inactive) |
| COc1ccc(C(=O)CSc2nnc3ccc(-c4ccccn4)nn23)cc1 | > 42 µM (inactive) |
| CCc1ccc(-c2nc(SCC(=O)N3CCOCC3)n[nH]2)cc1 | > 42 µM (inactive) |
| COC(=O)c1cccc(NC(=O)c2ccc[n+]([O-])c2)c1 | > 42 µM (inactive) |
| c1ccc(CNc2ccc3ccccc3n2)nc1 | > 42 µM (inactive) |
| Cc1ccc(NC2CC(=O)N(c3ccc(N4CCCCC4)cc3)C2=O)cc1 (centres undefined) | > 21 µM (inactive) |
| COc1ccc(S(=O)(=O)N2CCCOC2CNC(=O)C(=O)NCCCN2CCOCC2)cc1C (centres undefined) | > 42 µM (inactive) |
| O=C(Nc1ccc(OC(F)(F)F)cc1)c1ccc2ccccc2n1 | > 42 µM (inactive) |
| CCCN1C(=O)c2[nH]nc(-c3cc(Cl)c(C)cc3O)c2C1c1ccc(O)c(OC)c1 (centres undefined) | > 42 µM (inactive) |
| CC(=O)c1cccc(NC(=O)CN(c2cccc(F)c2)S(C)(=O)=O)c1 | > 42 µM (inactive) |
| Cc1sc2nc(N)sc2c1C | > 42 µM (inactive) |
| CC12CCC(=O)N1C(C(=O)Nc1ccccc1F)CS2 (centres undefined) | > 42 µM (inactive) |
| C=CCNC(=O)NC(=O)COC(=O)/C(C#N)=C/c1cc(C)n(CC(C)C)c1C | > 42 µM (inactive) |
| COC(=O)CSc1ccc(S(=O)(=O)N2CCCCCC2)cc1[N+](=O)[O-] | > 42 µM (inactive) |
| CCOc1ccc(C(=O)NCC2OCCc3ccccc32)cc1 (centres undefined) | > 42 µM (inactive) |
| CCn1c(N2CCN(C(=O)C34CC5CC(CC(C5)C3)C4)CC2)nc2ccccc21 | > 42 µM (inactive) |
| CCCn1nc(C(=O)NNC(=O)c2cc(S(=O)(=O)NC)ccc2Br)c2ccccc2c1=O | > 42 µM (inactive) |
| CCCc1ccccc1OCCNC(C)=O | > 42 µM (inactive) |
| O=C(COC(=O)C1CC(=O)N(Cc2ccccc2)C1)Nc1ccccc1F (centres undefined) | > 21 µM (inactive) |
| CCc1nc2ccccc2c(C(=O)OC2CCCCC2=O)c1C (centres undefined) | > 42 µM (inactive) |

| Structure (SMILES) | AC50 |
| --- | --- |
| Cc1cc(NC(=O)c2ccc3c(c2)C(=O)N(C(C)(C)C)C3=O)no1 | > 42 µM (inactive) |
| Cc1nc2c3ccccc3nc(NNC(=O)CCC(=O)N3CCCC(C)C3)n2n1 (centres undefined) | > 42 µM (inactive) |
| Cn1cccc1CC(=O)N/N=C/c1cccc([N+](=O)[O-])c1 | > 42 µM (inactive) |
| O=c1[nH][nH]c(C(F)(F)F)c1C=NCc1cccs1 | > 42 µM (inactive) |
| CCOc1cc(C(N)=O)cc(Cl)c1OCc1ccccc1 | > 42 µM (inactive) |
| COc1ccc(CCNC(=O)c2cc(-c3ccco3)on2)cc1OC | > 42 µM (inactive) |
| O=C(CN(CC1CCCO1)C(=O)CNS(=O)(=O)c1ccc(F)cc1)NCc1ccccc1 (centres undefined) | > 42 µM (inactive) |
| CN(c1cccnc1)c1ncnc2[nH]ncc12 | > 42 µM (inactive) |
| COc1cccc(/C=C2\SC(N3CCC(C)CC3)=NC2=O)c1OC | > 42 µM (inactive) |
| Cc1ccc(C(=O)Nc2nc(-c3ccc(F)cc3)cs2)o1 | > 42 µM (inactive) |
| CC1(C)Cc2nc3sc4c(OCc5ccccc5)ncnc4c3cc2CO1 | > 42 µM (inactive) |
| Cc1cc(NC(=O)c2ccccc2F)n(C(C)(C)C)n1 | > 42 µM (inactive) |
| O=[N+]([O-])c1cncc([N+](=O)[O-])c1Nc1ccccc1Cl | > 42 µM (inactive) |
| O=C(COc1ccc(Cl)cc1)NCCCNC(=O)c1ccccn1 | > 42 µM (inactive) |
| Cc1c(NC(=O)C(C)Sc2nnc(-c3ccccc3)o2)c(=O)n(-c2ccccc2)n1C (centres undefined) | > 42 µM (inactive) |
| CC1=CS(=O)(=O)CC1Sc1ncn[nH]1 (centres undefined) | > 42 µM (inactive) |
| COc1ccccc1NS(=O)(=O)c1cc(Cl)ccc1OC | > 42 µM (inactive) |
| COc1ccc(CNC(=O)c2cc(=O)c3cc(C)cc(C)c3o2)cc1 | > 42 µM (inactive) |
| COc1ccc(N2CCN(C(=O)Cn3nnc(-c4ccc(OC)c(OC)c4)n3)CC2)cc1 | > 42 µM (inactive) |
| Clc1ccc(CN(Cc2ccccc2)C(c2cccs2)c2nnnn2C2CCCC2)cc1 (centres undefined) | > 42 µM (inactive) |
| COc1cc(/C=N/NC(=O)c2ccncc2)ccc1OC(=O)c1ccco1 | > 42 µM (inactive) |
| CS(=O)(=O)c1ccc(Cl)c(NC(=O)c2ccc3ccccc3c2)c1 | > 42 µM (inactive) |
| COc1cc(OC)cc(OC(=O)c2ccc3c(=O)n4c(nc3c2)CCC4)c1 | > 42 µM (inactive) |
| COC(=O)C1CN(C(=O)C(C)Oc2ccc(F)cc2)c2ccccc2O1 (centres undefined) | > 42 µM (inactive) |
| CCC(=O)N1c2ccc(S(=O)(=O)N3CCN(c4ccc([N+](=O)[O-])cc4)CC3)cc2CC1C (centres undefined) | > 42 µM (inactive) |

| Structure (SMILES) | AC50 |
| --- | --- |
| Cc1c(C(=O)NC(C)C)oc2c1-c1[nH]ncc1CC2 | > 42 µM (inactive) |
| CCOc1cc(-c2ccccc2)nc(N)n1 | > 42 µM (inactive) |
| CC(C)Cc1nc(N2CCOCC2)c(C#N)c2c1CCC2 | > 42 µM (inactive) |
| Cc1ccc(C)c(C(C)NC(=O)c2ccncc2)c1 (centres undefined) | > 42 µM (inactive) |
| O=C(c1cc(N2C(=O)C3C4CCC(C4)C3C2=O)ccc1Cl)N1CCCCCC1 (centres undefined) | > 42 µM (inactive) |
| CCCCCCOc1ccc(N2C(=O)CC(N3CCC(C(=O)OCC)CC3)C2=O)cc1 (centres undefined) | > 42 µM (inactive) |
| O=C(OCC(=O)N1CCN(Cc2ccccc2)CC1)c1ccc(Cl)cc1 | > 42 µM (inactive) |
| COc1ccccc1-c1nnc(SCC(=O)NC2CCS(=O)(=O)C2)n1N (centres undefined) | > 42 µM (inactive) |
| CCn1cnc2sc(-c3ccccc3)cc2c1=O | > 42 µM (inactive) |
| CCc1c(C)c2ccc(OCC(=O)OC(C)C)c(C)c2oc1=O | > 42 µM (inactive) |
| CCOC(=O)C1ON2CCCCC2C1(O)C(F)(F)F (centres undefined) | > 42 µM (inactive) |
| N#CCCN(Cc1cccnc1)C(=O)Nc1cccc(Cl)c1 | > 42 µM (inactive) |
| CCCCn1c(N)c(N(CC(C)C)C(=O)c2cc(-c3ccc(F)cc3)nc3ccccc23)c(=O)[nH]c1=O | > 42 µM (inactive) |
| Cc1ccccc1-n1ncc2c([N+](=O)[O-])cc([N+](=O)[O-])cc21 | > 42 µM (inactive) |
| N[C@@H](Cc1ccc(O)c(I)c1)C(=O)O | > 42 µM (inactive) |
| O=C(Nc1nccs1)C1CCN(S(=O)(=O)c2ccc(Cl)c(C(F)(F)F)c2)CC1 | > 42 µM (inactive) |
| C=CSc1sc(Cl)c(N(C)C)c1[N+](=O)[O-] | > 42 µM (inactive) |
| Cc1ccccc1-c1nnnn1C1CCS(=O)(=O)C1 (centres undefined) | > 42 µM (inactive) |
| CC1=C(C(=O)Nc2ccccc2)C(c2ccccc2[N+](=O)[O-])NC(=O)N1 (centres undefined) | > 42 µM (inactive) |
| CCC1(CC)NC(=O)N(CC(=O)OCC(=O)NC(=O)c2ccccc2)C1=O | > 42 µM (inactive) |
| Cc1ccc(C)c(S(=O)(=O)n2cnc3ccccc32)c1 | > 42 µM (inactive) |
| Cc1ccnc(NC(=O)CC(c2ccccc2)c2ccccc2)n1 | > 42 µM (inactive) |
| Cc1ccc2c(c1)N(CC(=O)NCCCN1CCN(C)CC1)C(=O)CO2 | > 42 µM (inactive) |
| CSc1cccc(NC(=S)N2CCCN(Cc3ccccc3F)C2)c1 | > 42 µM (inactive) |
| O=C(O)COc1ccc(Br)cc1/C=N\Nc1ccccn1 | > 42 µM (inactive) |

| Structure (SMILES) | AC50 |
| --- | --- |
| O=C(NCCNc1ccc(Cl)cc1[N+](=O)[O-])c1ccccc1F | > 42 µM (inactive) |
| CC1CCN(CCCOc2ccc(OCc3ccccc3)cc2)CC1 | > 42 µM (inactive) |
| Cc1ccc2c(c1)N(CC(=O)NCC1CCCO1)C(=O)C(C)O2 (centres undefined) | > 42 µM (inactive) |
| O=C(NC1CCc2ccccc21)c1cc(COc2ccc(F)cc2F)on1 (centres undefined) | > 42 µM (inactive) |
| COc1cccc(/C=N/NC(=O)CCn2cnc3ccccc32)c1 | > 42 µM (inactive) |
| O=C(NC1CCCCC1)c1ccc2snnc2c1 | > 42 µM (inactive) |
| COC(CNC(=O)c1cn(C)c2ccc(S(=O)(=O)N3CCOCC3)cc2c1=O)OC | > 42 µM (inactive) |
| COc1ccc2c(CC(=O)Nc3ccc(OC)c(NS(=O)(=O)c4ccc(F)cc4)c3)coc2c1 | > 42 µM (inactive) |
| CC/C(=N\Nc1ccc([N+](=O)[O-])cc1)c1ccccc1 | > 42 µM (inactive) |
| CCN(CC)C(=O)Cn1cc(S(=O)(=O)CC(=O)NCCc2ccc(OC)c(OC)c2)c2ccccc21 | > 42 µM (inactive) |
| COC(=O)[C@@H]1[C@@H](C(=O)OC)C2(c3ccccc3-c3ccccc32)N(c2ccc(Cl)cc2)N1C#N | > 42 µM (inactive) |
| Cc1ccc(OCC(=O)NN2C(=O)c3ccccc3C2=O)c(C)c1 | > 42 µM (inactive) |
| CC(C)(CNC(=O)c1cccs1)CNC(=O)c1cccs1 | > 42 µM (inactive) |
| COCCn1c(SCC(=O)NCc2cccs2)nnc1-c1ccc(OC)cc1 | > 42 µM (inactive) |
| CCCC(O)(CCC)C(=O)NNc1ccc(C)cc1 | > 42 µM (inactive) |
| CC(=O)NC(CC(C)C)C(=O)NC(CO)C(=O)NC(CCC(=O)O)C(=O)NC(C)C(=O)NC(CC(C)C)C(N)=O (centres undefined) (Ac-LSEAL-NH2; configuration not given here) | > 42 µM (inactive) |
| CC1CCN(Cc2nc3c(c(=O)n(C)c(=O)n3C)n2CCc2ccccc2)CC1 | > 42 µM (inactive) |
| CCCNC(=O)CN(c1ccc(F)cc1)S(=O)(=O)c1ccc2c(c1)OCCO2 | > 42 µM (inactive) |
| COc1ccc(NC(=O)c2ccc(-c3csc(C)n3)cc2)cc1 | > 42 µM (inactive) |
| CC(=O)c1cc(C)ccc1OC(=O)c1ccco1 | > 42 µM (inactive) |
| Cc1ccc(C2=NN(CC(=O)NCc3cccs3)C(=O)CC2)cc1 | > 42 µM (inactive) |
| CCN(CC)C(=O)CSC(Nc1cccc(F)c1)=C(C#N)C#N | > 42 µM (inactive) |
| Nc1ccc(C2(c3ccc(N)cc3)OC(=O)c3ccccc32)cc1 | > 42 µM (inactive) |
| CCOC(=O)c1ccc(NC(=O)NCc2ccncc2)cc1 | > 42 µM (inactive) |
